The subject of assay [1] is AngII/PCSK9-induced AAA mouse model. Kind of assay: Ang II plus hypercholesterolemia (AngII/PCSK9) induced AAA mouse model. In kind it is in vivo. How it is done: FIG. 1. Characterization of the protective effect of NO2—OA (10-nitro-octadec-9-enoic acid) in the Ang II plus hypercholesterolemia-induced AAA mouse model. (A) Schematic illustration of the in vivo experimental design. Ten week old male C57BL/6 mice were IP injected with AAV carrying PCSK9 gain-of-function (D377Y) mutation and fed a western diet. After two weeks, each mouse was implanted with a pump delivering AngII at a rate of 1,500 ng/kg/min plus an additional pump containing either PEG-400 (vehicle), OA or NO2—OA with a delivery rate of 5 mg/kg/day (n=25 to 30 per group) and carried to the endpoint for another four weeks. Mice with ruptured aorta within the first week or with total plasma cholesterol less than 250 mg/dl were excluded from the study. (B) Representative morphological differences of the abdominal aorta. (C) AAA incidence calculated by using 1.2 mm as the cutoff diameter indicated by the dotted line in (D). (D) Average maximal diameter of the suprarenal aorta region. (E) Representative H&E and VVG staining of the paraffin-embedded suprarenal aortic cross-sections (5 μm). (F) Grade of elastic fiber degradation in the aorta (1 to 4). A 2×3 Fisher's exact test followed by posthoc test was performed for (C). For (D) and (F), the Kruskal-Wallis test followed by Dunn's multiple comparisons was performed. Continuous data are presented as mean±SEM. Scale bar=20 μm for (E). A p<0.05 for both the main test and post hoc test was considered statistically significant.
Ten weeks old male C57BL/6J mice were purchased from The Jackson Laboratory. The murine AAA model induced by AngII/PCSK9 gain-of-function mutation is well-established. After acclimation for 1 week, mice were fed a western diet (TD.88137, Envigo) and intraperitoneally injected with 2×1011 genomic copies of AAV-PCSK9.D377Y (AAV serotype 8, Penn Vector Core). Two weeks later, each mouse was subcutaneously implanted with two osmotic pumps (Model #2004, Alzet). One was loaded with AngII (#H-1706, Bachem), releasing at a rate of 1,500ng/kg/min, while the other one was loaded with PEG-400, OA or NO2—OA at a delivery rate of 5 mg/kg/day for OA or NO2—OA. After 4-weeks infusion, mice were euthanized and the maximal outer diameter of the suprarenal aorta was assessed with a digital caliper by a third person blinded to the treatment. Suprarenal aortas with a maximal diameter ≥50% larger than standard size (≥1.2 mm) were considered as abdominal aortic aneurysms. Mice dead within the first week of pump implantation or with a serum total cholesterol level less than 250 mg/dL were excluded from the study. All animal procedures were performed following the protocols approved by the Institutional Animal Care & Use Committee (IACUC) at the University of Michigan.
H&E and Verhoeff Van Gieson staining of paraffin or frozen sections of mouse suprarenal abdominal aorta were performed by the In-Vivo Animal Core at the University of Michigan. Elastin degradation grade was calculated as we previously reported.

In assay [2] the test system is leukocyte/macrophage infiltration in the vasculature. Briefly: FACS of single cells from mouse suprarenal aorta. In kind it is in vivo. Particulars: mean±SEM. The source says: FIG. 2. […] (A) Quantification of gene expression levels in the mice suprarenal aorta region by real-time PCR (n=3 to 4). (B, C) Serum cytokines levels measured by ELISA (n=8 to 11). (D) FACS of single cells isolated from the mice suprarenal aorta region. Each sample is the pool of cells from three mice (n=3). (E, F) Quantification of the percentage of CD45+ leukocytes and CD64+, CD11c+M1-like macrophages in total cells from the FACS analysis. Ordinary one-way ANOVA followed by Tukey's test was performed for (A), (E) and (F). For ELISA in (B) and (C), to avoid the effect of the non-detected data point, a non-parametric Kruskal-Wallis test followed by Dunn's multiple comparisons was performed by adding zero to the missing data point. Data presented as mean±SEM. A p<0.05 for both the main test and post hoc test was considered statistically significant.
The suprarenal aorta region from euthanized mice were completely perfused with PBS containing 2% of heparin. Tissues were digested using a cocktail of 450 U/mL collagenase type I (#17100-017, Gibco), 125 U/mL collagenase type XI (#C7657, Sigma-Aldrich), 60 U/mL hyaluronidase type I-s (#H3606, Sigma-Aldrich) and 60 U/mL DNase-I (#10104159001, Roche) at 37° C. for 90 minutes. Single cells filtered through a 70 μm cell strainer were blocked by Fc block (#14-0161-85, eBioscience) for 5 minutes on ice. […] Data were analyzed using FlowJo v10.6.1.

A further assay has as its target T1, EP4 Gs-coupled receptor (Homo sapiens, UniProt P35408).
T1 construct: expressed in transfected cells; host or cells: 293T cells
Briefly: cAMP HTRF assay in 293T cells overexpressing EP4. In kind it is cell-based. The settings on record: read-out: best-fit IC50, reduction of PGE2-induced recruitment of cAMP. The protocol: (§1) FIG. 4. NO2—OA inhibits PGE2-dependent EP4 cAMP downstream signaling. (A) Three parameters nonlinear regression of EP4 global fitting dose-response curve. […] (B) HTRF assay of cAMP-Gs coupled receptor. […] (D) Representative figure of gelatin zymography indicating MMP 2/9 activity. BMDMs were incubated with L-902,688 (100 nM) plus vehicle, OA (2.5 μM) or NO2—OA (2.5 μM) for 12 h, and MMP 2&9 activity was measured by gelatin zymography. For (A) and (B), three or four parameters, global or separate fitting, constraints, and the significance of EC50 were determined in Prism. Data presented as mean±SEM. A p<0.05 was considered statistically significant.
Cells at 80% density were incubated on plates coated with transfection complex containing human EP4 receptors and a cAMP response element-regulated secreted alkaline phosphatase (SEAP) reporter. Activation of EP4 was quantified by adding a luminance-based alkaline phosphatase substrate and read in a chemiluminescence plate reader relative to the kit's standards. EP4 Inhibition assay was performed using cAMP-Gs HiRange kit (#62AM6PEB, Cisbio) following the manufacture's protocol and measured by Neo2 plate reader (BioTek, Winooski, Vt.). HTRF ratio (665/620) was converted to cAMP concentration using a cAMP standard.
(In general: In TR-FRET formats the signal depends on donor and acceptor labels being close together.)

Another assay deals with MMP9. Kind of assay: Gelatin zymography in BMDMs, MMP9. The assay is classed as cell-based, mouse. Particulars: 2.5 μM, 12 h. The protocol:
as §1
Freshly differentiated BMDMs were cultured in the bone marrow macrophage-differentiation media until 80% confluence. […] Then, the supernatant was collected and centrifuged to remove any residual debris. Measurement of MMP2 and MMP9 activity was performed by running the supernatant (using detergent-free loading buffer) in 1% gelatin gel, followed by staining with Coomassie blue.

Molecules are shown by their SMILES.

T1 sequence (P35408 whole entry): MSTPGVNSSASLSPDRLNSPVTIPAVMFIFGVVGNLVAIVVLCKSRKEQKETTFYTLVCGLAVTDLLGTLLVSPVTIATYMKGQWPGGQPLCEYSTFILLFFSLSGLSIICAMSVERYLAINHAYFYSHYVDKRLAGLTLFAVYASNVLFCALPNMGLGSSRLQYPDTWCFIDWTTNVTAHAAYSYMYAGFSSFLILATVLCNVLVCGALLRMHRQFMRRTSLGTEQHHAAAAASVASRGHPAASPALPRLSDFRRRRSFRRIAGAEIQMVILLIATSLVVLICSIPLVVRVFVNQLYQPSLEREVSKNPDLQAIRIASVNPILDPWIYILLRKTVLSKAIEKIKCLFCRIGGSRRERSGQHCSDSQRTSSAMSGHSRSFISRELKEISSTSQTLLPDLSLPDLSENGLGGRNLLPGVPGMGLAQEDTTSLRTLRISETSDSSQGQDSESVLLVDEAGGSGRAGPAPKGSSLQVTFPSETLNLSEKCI

With `CCCCCCCCC(=CCCCCCCCC(=O)O)[N+](=O)[O-]` [NO2—OA, 10-nitro-octadec-9-enoic acid], the AAA incidence in assay [1] (5 mg/kg/day subcutaneous infusion, after 4 weeks, cutoff diameter 1.2 mm) is reported as 28.6%. Moreover, the “maximal diameter of the suprarenal aorta region” value in assay [1] (5 mg/kg/day subcutaneous infusion, after 4 weeks, mean±SEM) worked out at 1.16±0.09 mm. For the same compound, the “ECM degradation / elastin fiber degradation” value in assay [1] (5 mg/kg/day, 4 weeks, VVG staining, grade 1 to 4) was “significantly reduced”. In assay [2], the “leucocytes (CD45+) in the vasculature, percentage of total cells” value turned out to be 14.87±3.28% and the “pro-inflammatory M1 like macrophages (CD64+, CD11c+), percentage of total cells” value came out at 3.27±0.42%. In addition, the IC50 (usually the concentration that inhibits the measured activity by half) on EP4 Gs-coupled receptor stood at 2800 nM. Further, in the assay with MMP9, the “PGE2-upregulated MMP9 (gelatin zymography)” value is given as “significantly diminished”.

Values taken from US12728111B2, “Electrophilic compounds and electrophilic prodrugs for treating aneurysm” (University of Pittsburgh—Of the Commonwealth System of …, priority 2020, dated 2026).
